From US8486962B2, “Antifungal agents” (F2G Ltd., priority 2005, dated 2013)
Values after ≈ are worked out from the molar mass of the structure shown. Like-named read-outs stand apart in the source and are kept apart here.

How the values were obtained:
Format in all cases: cell-based
[1] = test system: Aspergillus flavus; experiment: MIC, YAG medium, Aspergillus flavus; details: Aspergillus flavus, YAG medium
Procedure: (§1) Measurement of Minimum Inhibitory Concentrations (MICs)
(§2) Between 1 and 5 mgs of compound were accurately weighed out into a sterile Eppendorf tube. The compound was dissolved in DMSO to give a solution containing 5 mg/ml. Tubes were stored at −20° C. until required.
(§3) On the day of testing thawed solutions were vortex mixed to ensure homogeneity. 30 μl of solution was removed and added to 570 μl of sterile water in a separate sterile Eppendorf. The thoroughly mixed solution was used to prepare a series of doubling dilutions in water, in a deep well plate. Eleven replicate plates were prepared using a Minitrak by aspirating 20 μl from each well into eleven clear polystyrene 96 well plates.
(§4) Spores of Aspergillus spp (Aspergillus fumigatus, Aspergillus terreus, Aspergillus niger and Aspergillus flavus) were harvested from cultures grown on Sabarauds agar for 5 days, and resuspended in PBS/Tween 80 to approx 1×10^7 cfu/ml Other filamentous fungi (Fusarium solani, Scedosporium spp., Trichophyton spp., Absidia corymbifera), were grown on Sabarauds agar for 2-10 days and spores/hyphae resuspended in PBS/Tween to give approx 1×10^7 cfU/ml. Candida species (Candida albicans, Candida glabrata, Candida krusei, Candida parapsilosis and Candida tropicalis) were grown on Sabarauds agar, cells were harvested from the agar using a sterile loop and resuspended in PBS/Tween 80 to approx 1×10^6 cfu/ml. Each organism suspension was diluted in RPMI medium, containing 2% glucose and 0.135M MOPS buffer (pH7.0) to 2×10^4 cfu/ml for Aspergillus spp and other filamentous fungi and 2×10^3 cfu/ml for yeast. 80 μl of an organism suspension was added to each well of the plate containing drug dilutions.
(§5) This produced MIC plates with a drug range 50-0.05 mg/L and organism inocula of 1-2×10^4 cfu/ml for Aspergillus spp and other filamentous fungi and 1-2×10^3 cfu/ml for yeasts. All plates were incubated for 24-48 hrs at 35° C. Growth was assessed by monitoring the optical density at 485 nm for each well. The MIC of a compound is the lowest drug concentration that inhibits growth of an organism by >80% compared with a drug free control. MICs are recorded as mg/L. Other growth media can be used for susceptibility testing, and the activity of the described compounds can also be assessed in a medium comprising, 1% glucose, 1% ammonium chloride and 0.5% yeast extract (YAG medium). To perform MIC tests in this medium, dilutions of compounds are prepared in microtitre plates as described above. Fungal strains to be tested are grown and harvested in an identical manner to that described above, each organism suspension is then diluted in YAG medium to 2×10^4 cfu/ml for Aspergillus spp and other filamentous fungi and 2×10^3 cfu/ml for yeast. 80 μl of an organism suspension was added to each well of the plate containing drug dilutions. This produced MIC plates with a drug range 50-0.05 mg/L and organism inocula of 1-2×10^4 cfu/ml for Aspergillus spp and other filamentous fungi and 1-2×10^3 cfu/ml for yeasts. All plates were incubated for 24 hrs at 35° C. Growth was assessed by monitoring the optical density at 485 nm for each well. The MIC of a compound is the lowest drug concentration that inhibits growth of an organism by >70% compared with a drug free control. MICs are recorded as mg/L. In cases where the MIC of an organism is […]0.05 mg/L the MIC is repeated using a concentration range of 0.5-0.0005 mg/L. MIC tests in YAG medium have more clear-cut endpoints and have slightly lower MICS than those performed in RPMI medium.
(§6) The following organisms were tested: Aspergillus fumigatus AF293 and Aspergillus fumigatus AF210, Aspergillus niger, Aspergillus terreus, Aspergillus favus, Candida albicans, Candida krusei, Candida tropicalis, Candida glabrata, Candida parapsilosis, Trichophyton rubrum, Trichophyton mentagrophytes, Scedosporium prolificans, Scedosporium apiospermum, Absidia corymbifera, Fusarium solani.

[2] = test system: Aspergillus fumigatus AF293; experiment: MIC, YAG medium, Aspergillus fumigatus AF293; details: Aspergillus fumigatus, AF293; YAG medium; read-out: MIC A Fum. 293
Procedure: as §1, §2, §3, §4, §5, §6

[3] = test system: Aspergillus niger; experiment: MIC, YAG medium, Aspergillus niger; details: Aspergillus niger, YAG medium
Procedure: as §1, §2, §3, §4, §5, §6

[4] = test system: Aspergillus terreus; experiment: MIC, YAG medium, Aspergillus terreus; details: Aspergillus terreus, YAG medium
Procedure: as §1, §2, §3, §4, §5, §6

[5] = test system: Aspergillus fumigatus AF210; experiment: MIC, YAG medium, Aspergillus fumigatus AF210; details: Aspergillus fumigatus, AF210; YAG medium; read-out: MIC A Fum. 210
Procedure: as §1, §2, §3, §4, §5, §6

Row | MIC ([1]; read-out: MIC A Flavus 01) [µg/mL] | MIC [2] [µg/mL] | MIC ([3]; read-out: MIC A Niger 1) [µg/mL] | MIC ([4]; read-out: MIC A Terreus 4) [µg/mL] | MIC [5] [µg/mL] | MIC ([1]; read-out: MIC A Flavus) [µg/mL] | MIC ([3]; read-out: MIC A Niger) [µg/mL] | MIC ([4]; read-out: MIC A Terreus) [µg/mL] | SMILES
1 | 25 (≈ 77.6 µM) | 50 (≈ 155 µM) | 25 (≈ 77.6 µM) | 25 (≈ 77.6 µM) | 25 (≈ 77.6 µM) | – | – | – | COCCNC(=O)C(=O)c1c(-c2ccccc2)cc2ccccn12 [Example 181, N-(2-Methoxy-ethyl)-2-oxo-2-(2-phenyl-indolizin-3-yl)-acetamide]
2 | 0.1 (≈ 0.238 µM) | 0.8 (≈ 1.9 µM) | 0.4 (≈ 0.952 µM) | 0.1 (≈ 0.238 µM) | 0.8 (≈ 1.9 µM) | – | – | – | O=C(Nc1ccc(Br)cc1)C(=O)c1c(-c2cccnc2)cc2ccccn12 [Example 214, N-(4-Bromo-phenyl)-2-oxo-2-(2-pyridin-3-yl-indolizin-3-yl)-acetamide]
3 | 1.6 (≈ 4.69 µM) | 12.5 (≈ 36.6 µM) | 0.4 (≈ 1.17 µM) | 0.8 (≈ 2.34 µM) | 25 (≈ 73.2 µM) | – | – | – | O=C(Nc1cccnc1)C(=O)c1c(-c2ccccc2)cc2ccccn12 [Example 152, 2-Oxo-2-(2-phenyl-indolizin-3-yl)-N-pyridin-3-yl-acetamide]
4 | > 50 | > 50 | > 50 | 12.5 (≈ 30.3 µM) | > 50 | – | – | – | CCOC(=O)c1ccccc1NC(=O)C(=O)c1c(-c2ccccc2)cc2ccccn12 [Example 208, 2-[2-Oxo-2-(2-phenyl-indolizin-3-yl)-acetylamino]-benzoic acid ethyl ester]
5 | 1.6 (≈ 4.62 µM) | 0.8 (≈ 2.31 µM) | 0.2 (≈ 0.577 µM) | 0.1 (≈ 0.289 µM) | 0.8 (≈ 2.31 µM) | – | – | – | O=C(NC1CCCCC1)C(=O)c1c(-c2ccccc2)cc2ccccn12 [Example 178, N-Cyclohexyl-2-oxo-2-(2-phenyl-indolizin-3-yl)-acetamide]
6 | 0.2 (≈ 0.532 µM) | 6.25 (≈ 16.6 µM) | 0.4 (≈ 1.06 µM) | 0.2 (≈ 0.532 µM) | 6.25 (≈ 16.6 µM) | – | – | – | O=C(Nc1ccccc1Cl)C(=O)c1c(-c2cccnc2)cc2ccccn12 [Example 216, N-(2-Chloro-phenyl)-2-oxo-2-(2-pyridin-3-yl-indolizin-3-yl)-acetamide]
7 | 0.1 (≈ 0.269 µM) | 12.5 (≈ 33.7 µM) | 0.1 (≈ 0.269 µM) | 3.1 (≈ 8.35 µM) | 6.25 (≈ 16.8 µM) | – | – | – | COc1ccc(NC(=O)C(=O)c2c(-c3cccnc3)cc3ccccn23)cc1 [Example 147, N-(4-Methoxy-phenyl)-2-oxo-2-(2-pyridin-3-yl-indolizin-3-yl)-acetamide]
8 | > 50 | > 50 | 1.6 (≈ 4.31 µM) | > 50 | > 50 | – | – | – | COc1ccc(NC(=O)C(=O)c2c(-c3ccccn3)cc3ccccn23)cc1 [Example 163, N-(4-Methoxy-phenyl)-2-oxo-2-(2-pyridin-2-yl-indolizin-3-yl)-acetamide]
9 | 0.4 (≈ 0.996 µM) | 25 (≈ 62.3 µM) | 3.1 (≈ 7.72 µM) | 1.6 (≈ 3.99 µM) | 25 (≈ 62.3 µM) | – | – | – | COc1ccc(NC(=O)C(=O)c2c(-c3ccncc3)cc3ccccn23)c(OC)c1 [Example 172, N-(2,4-Dimethoxy-phenyl)-2-oxo-2-(2-pyridin-4-yl-indolizin-3-yl)-acetamide]
10 | 0.4 (≈ 1.04 µM) | 1.6 (≈ 4.15 µM) | 0.8 (≈ 2.08 µM) | 0.4 (≈ 1.04 µM) | 1.6 (≈ 4.15 µM) | – | – | – | COc1ccc(NC(=O)C(=O)c2c(-c3ccccc3)cc3ccc(C)cn23)cn1 [Example 192, N-(6-Methoxy-pyridin-3-yl)-2-(6-methyl-2-phenyl-indolizin-3-yl)-2-oxo-acetamide]
11 | 0.1 (≈ 0.253 µM) | > 50 | > 50 | 0.05 (≈ 0.126 µM) | > 50 | – | – | – | COc1ccc(NC(=O)C(=O)c2c(-c3cccc(C#N)c3)cc3ccccn23)cc1 [Example 236, 2-[2-(3-Cyano-phenyl)-indolizin-3-yl]-N-(4-methoxy-phenyl)-2-oxo-acetamide]
12 | 50 (≈ 150 µM) | 25 (≈ 75.2 µM) | 0.8 (≈ 2.41 µM) | 6.25 (≈ 18.8 µM) | 6.25 (≈ 18.8 µM) | – | – | – | O=C(C(=O)N1CCCCC1)c1c(-c2ccccc2)cc2ccccn12 [Example 184, 1-(2-Phenyl-indolizin-3-yl)-2-piperidin-1-yl-ethane-1,2-dione]
13 | 0.05 (≈ 0.122 µM) | 1.6 (≈ 3.9 µM) | 1.6 (≈ 3.9 µM) | 0.05 (≈ 0.122 µM) | 0.8 (≈ 1.95 µM) | – | – | – | O=C(Nc1cc(Cl)cc(Cl)c1)C(=O)c1c(-c2cccnc2)cc2ccccn12 [Example 227, N-(3,5-Dichloro-phenyl)-2-oxo-2-(2-pyridin-3-yl-indolizin-3-yl)-acetamide]
14 | 0.05 (≈ 0.122 µM) | 1.6 (≈ 3.92 µM) | 0.8 (≈ 1.96 µM) | 0.1 (≈ 0.245 µM) | 0.8 (≈ 1.96 µM) | – | – | – | CC(C)(C#N)c1cccc(NC(=O)C(=O)c2c(-c3cccnc3)cc3ccccn23)c1 [Example 231, N-[3-(Cyano-dimethyl-methyl)-phenyl]-2-oxo-2-(2-pyridin-3-yl-indolizin-3-yl)-acetamide]
15 | > 50 | > 50 | > 50 | 1.6 (≈ 4.33 µM) | > 50 | – | – | – | Cc1ccc(NC(=O)C(=O)c2c(-c3cccnc3)cc3ccc(C)cn23)cc1 [Example 199, 2-(6-Methyl-2-pyridin-3-yl-indolizin-3-yl)-2-oxo-N-p-tolyl-acetamide]
16 | – | > 50 | – | – | > 50 | > 50 | 25 (≈ 74.8 µM) | > 50 | O=C(C(=O)N1CCOCC1)c1c(-c2ccccc2)cc2ccccn12 [Example 300, 1-Morpholin-4-yl-2-(2-phenyl-indolizin-3-yl)-ethane-1,2-dione]
17 | > 50 | > 50 | > 50 | 1.6 (≈ 4.16 µM) | > 50 | – | – | – | COc1ccc(NC(=O)C(=O)c2c(-c3ccccc3)cc3c(C)cccn23)cc1 [Example 234, N-(4-Methoxy-phenyl)-2-(8-methyl-2-phenyl-indolizin-3-yl)-2-oxo-acetamide]
18 | 0.8 (≈ 2.09 µM) | > 50 | > 50 | 3.1 (≈ 8.09 µM) | > 50 | – | – | – | CC(=O)c1ccc(NC(=O)C(=O)c2c(-c3cccnc3)cc3ccccn23)cc1 [Example 217, N-(4-Acetyl-phenyl)-2-oxo-2-(2-pyridin-3-yl-indolizin-3-yl)-acetamide]
19 | 0.4 (≈ 1.13 µM) | 6.25 (≈ 17.6 µM) | 1.6 (≈ 4.5 µM) | 0.8 (≈ 2.25 µM) | 6.25 (≈ 17.6 µM) | – | – | – | Cc1ccccc1NC(=O)C(=O)c1c(-c2cccnc2)cc2ccccn12 [Example 213, 2-Oxo-2-(2-pyridin-3-yl-indolizin-3-yl)-N-o-tolyl-acetamide]
20 | > 50 | > 50 | 0.8 (≈ 2.01 µM) | > 50 | > 50 | – | – | – | COC(=O)c1ccccc1NC(=O)C(=O)c1c(-c2ccccc2)cc2ccccn12 [Example 142, 2-[2-Oxo-2-(2-phenyl-indolizin-3-yl)-acetylamino]-benzoic acid methyl ester]
21 | > 50 | > 50 | 6.25 (≈ 16.3 µM) | > 50 | > 50 | – | – | – | NC(=O)c1ccc(NC(=O)C(=O)c2c(-c3ccccc3)cc3ccccn23)cc1 [Example 161, 4-[2-Oxo-2-(2-phenyl-indolizin-3-yl)-acetylamino]-benzamide]
22 | > 50 | 12.5 (≈ 28.8 µM) | 3.1 (≈ 7.15 µM) | 6.25 (≈ 14.4 µM) | 50 (≈ 115 µM) | – | – | – | CS(=O)(=O)Nc1ccc(NC(=O)C(=O)c2c(-c3ccccc3)cc3ccccn23)cc1 [Example 219, N-(4-Methanesulfonylamino-phenyl)-2-oxo-2-(2-phenyl-indolizin-3-yl)-acetamide]
